The source of these data is patent US20260137697A1, “THIAZOLO[5,4-D]PYRIMIDINE COMPOUNDS, COMPOSITIONS COMPRISING THEM AND USES THEREOF” (University de Montreal, priority 2022, published 2026).

Test [1] concerns the target T1, BRAF (Homo sapiens, UniProt P15056).
T1 construct: GST; purchased Millipore Sigma B4062-10UG
As to the kind of experiment: BRAF kinase activity assay (ADP-Glo). It is filed as biochemical. The settings on record: Table 3; 10 μM ATP, kinase-dead MEK1 substrate. The procedure, abridged: (§1)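 ADP-Glo luminescence read after 2 h reactions at 30° C containing 0.375 nM GST-kinase, kinase-dead MEK1 (75 nM), ATP at 10 μM, pH 7.5 HEPES/MgCl2/DTT, 0.05% DMSO. Compounds dosed from 100 to 0.01 nM (nine points); IC50 from variable-slope fit of % inhibition.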

Test [2] concerns the target T2, CRAF (Homo sapiens, UniProt P04049).
T2 construct: fused on or other part: GST tag (N-terminal according to the vendor's product)
Kind of test: CRAF kinase activity assay (ADP-Glo). In kind it is biochemical. The settings on record: Table 3; 10 μM ATP, kinase-dead MEK1 substrate. The procedure, abridged:
as §1

The subject of test [3] is pERK, HCT116 cells. As to the kind of experiment: Phospho-ERK inhibition, AlphaLISA p-ERK 1/2, HCT-116. It is filed as cell-based, human. The settings on record: Table 3; for IC50: HCT116 cells (KRAS G13D), 1 h treatment; for HCT116 pERK (Ymin %): lowest % inhibition value of the pERK IC50 curve, above −20% = no paradoxical induction. The procedure, abridged: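 Cells in RPMI-1640 with 5% FBS plated overnight, then treated 1 h with ten-point dilutions (10 μM to 0.33 nM, 0.5% DMSO). Lysate p-ERK1/2 (Thr202/Tyr204) read by AlphaLISA SureFire Ultra; % inhibition normalised to DMSO and 1 μM trametinib background, IC50 by four-parameter fit.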
In general terms: In Alpha technology, singlet oxygen from a donor bead excites a nearby acceptor bead.

As usually defined, the IC50 is the point on the concentration scale where inhibition reaches its midpoint.

Structures are written as SMILES. Bounds are passed on as bounds.

T2 sequence (P04049 whole entry Y340E/Y341E, form open, the tested form may be a part): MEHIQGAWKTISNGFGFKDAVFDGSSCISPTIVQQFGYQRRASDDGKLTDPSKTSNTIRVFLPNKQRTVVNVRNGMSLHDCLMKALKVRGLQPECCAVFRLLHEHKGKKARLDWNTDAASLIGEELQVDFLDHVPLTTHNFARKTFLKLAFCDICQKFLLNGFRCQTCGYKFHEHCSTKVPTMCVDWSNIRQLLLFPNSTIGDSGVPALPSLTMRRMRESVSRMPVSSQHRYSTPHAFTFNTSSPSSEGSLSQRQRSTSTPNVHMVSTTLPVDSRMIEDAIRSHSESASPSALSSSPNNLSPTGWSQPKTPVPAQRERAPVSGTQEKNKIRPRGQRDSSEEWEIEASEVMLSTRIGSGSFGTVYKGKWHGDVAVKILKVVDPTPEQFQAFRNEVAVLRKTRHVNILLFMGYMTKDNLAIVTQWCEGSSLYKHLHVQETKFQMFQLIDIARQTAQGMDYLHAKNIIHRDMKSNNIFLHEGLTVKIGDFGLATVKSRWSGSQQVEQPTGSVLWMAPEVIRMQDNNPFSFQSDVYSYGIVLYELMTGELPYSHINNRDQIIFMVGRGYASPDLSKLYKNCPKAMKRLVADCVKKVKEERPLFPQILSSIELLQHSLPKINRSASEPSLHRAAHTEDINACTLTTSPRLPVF
T1 sequence (P15056 whole entry): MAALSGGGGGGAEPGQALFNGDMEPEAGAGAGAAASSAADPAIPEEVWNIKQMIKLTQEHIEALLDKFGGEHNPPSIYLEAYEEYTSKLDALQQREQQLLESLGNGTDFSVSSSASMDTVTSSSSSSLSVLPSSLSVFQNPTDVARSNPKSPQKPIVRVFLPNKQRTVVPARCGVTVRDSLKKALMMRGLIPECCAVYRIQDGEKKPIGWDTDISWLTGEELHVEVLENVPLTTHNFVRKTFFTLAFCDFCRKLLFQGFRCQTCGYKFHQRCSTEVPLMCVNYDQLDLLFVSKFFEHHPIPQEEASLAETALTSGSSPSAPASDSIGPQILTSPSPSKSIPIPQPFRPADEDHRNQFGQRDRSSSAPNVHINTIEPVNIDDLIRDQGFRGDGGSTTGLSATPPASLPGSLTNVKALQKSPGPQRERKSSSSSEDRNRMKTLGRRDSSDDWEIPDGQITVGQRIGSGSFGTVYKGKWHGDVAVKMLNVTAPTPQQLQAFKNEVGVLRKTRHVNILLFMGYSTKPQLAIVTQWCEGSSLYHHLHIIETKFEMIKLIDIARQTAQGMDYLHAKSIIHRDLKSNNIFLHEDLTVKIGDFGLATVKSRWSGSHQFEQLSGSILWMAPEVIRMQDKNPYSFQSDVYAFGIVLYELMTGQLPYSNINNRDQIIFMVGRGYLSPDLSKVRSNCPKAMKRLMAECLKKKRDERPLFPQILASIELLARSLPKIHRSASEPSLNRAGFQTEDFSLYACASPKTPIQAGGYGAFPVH

Turning to `CC1(C#N)CCN(c2cccc3c2ncn3-c2nc3c(Nc4c(F)ccc(NS(=O)(=O)c5cccc(Cl)c5Cl)c4F)ncnc3s2)CC1` [Example 145], the IC50 in test [1] was 1 to 10 nM; in test [2] it was > 50 nM; in test [3], < 500 nM. Moreover, the “HCT116 pERK (Ymin %)” value in test [3] is on record as −13%.
For the compound `O=S(=O)(Nc1ccc(F)c(Nc2ncnc3sc(-n4cnc5c(N6CCC7(CCOC7)CC6)cccc54)nc23)c1F)c1cccc(Cl)c1Cl` [Example 146], the figures for the IC50 in test [1], in test [2] and in test [3] were > 10 nM, > 50 nM and < 500 nM, respectively. In addition, in test [3], the “HCT116 pERK (Ymin %)” value was −12%.
Turning to `O=S(=O)(Nc1ccc(F)c(Nc2ncnc3sc(-n4cnc5c(N6CCC[C@H](O)C6)cccc54)nc23)c1F)c1cccc(Cl)c1Cl` [Example 147], the results for the IC50 in test [1], in test [2] and in test [3] were < 1 nM, 10 to 50 nM and < 500 nM, respectively. The “HCT116 pERK (Ymin %)” value in test [3] was −4%.
The matching figures for `O=S(=O)(Nc1ccc(F)c(Nc2ncnc3sc(-n4cnc5c(N6CCC[C@@H](O)C6)cccc54)nc23)c1F)c1cccc(Cl)c1Cl` [Example 148]: 1 to 10 nM, 10 to 50 nM, < 500 nM and −2%.
The matching figures for `CCC1(O)CCN(c2cccc3c2ncn3-c2nc3c(Nc4c(F)ccc(NS(=O)(=O)c5cccc(Cl)c5Cl)c4F)ncnc3s2)CC1` [Example 149]: 1 to 10 nM, 10 to 50 nM, < 500 nM and 16%.
The matching figures for `CC1(O)CCCN(c2cccc3c2ncn3-c2nc3c(Nc4c(F)ccc(NS(=O)(=O)c5cccc(Cl)c5Cl)c4F)ncnc3s2)CC1` (stereo not shown) [Example 150]: > 10 nM, 10 to 50 nM, 1000 to 10000 nM and −5%.
`O=C1CCCC12CCN(c1cccc3c1ncn3-c1nc3c(Nc4c(F)ccc(NS(=O)(=O)c5cccc(Cl)c5Cl)c4F)ncnc3s1)CC2` [Example 151]: the IC50 in test [1] is 1 to 10 nM; in test [2], 10 to 50 nM; in test [3], < 500 nM. Also, the “HCT116 pERK (Ymin %)” value in test [3] is −2%.
The matching figures for `O=S(=O)(Nc1ccc(F)c(Nc2ncnc3sc(-n4cnc5c(N6CCN(CCO)CC6)cccc54)nc23)c1F)c1cccc(Cl)c1Cl` [Example 152]: < 1 nM, < 10 nM, < 500 nM and 0%.
Take `CS(=O)(=O)C1CCN(c2cccc3c2ncn3-c2nc3c(Nc4c(F)ccc(NS(=O)(=O)c5cccc(Cl)c5Cl)c4F)ncnc3s2)CC1` [Example 153]: the IC50 in test [1] was 1 to 10 nM; in test [2], < 10 nM; in test [3], < 500 nM. Besides, in test [3], the “HCT116 pERK (Ymin %)” value is recorded as −5%.
As to `Cc1c(F)cccc1S(=O)(=O)Nc1ccc(F)c(Nc2ncnc3sc(-c4cncs4)nc23)c1F` [Example 154, N-[2,4-difluoro-3-[(2-thiazol-5-ylthiazolo[5,4-d]pyrimidin-7-yl)amino]phenyl]-3-fluoro-2-methyl-benzenesulfonamide], the IC50 in test [1] is > 10 nM; in test [2] it was > 50 nM; in test [3] (Homo sapiens, HCT-116), 1000 to 10000 nM.
On to `CS(=O)(=O)N1CCN(c2cccc3c2ncn3-c2nc3c(Nc4c(F)ccc(NS(=O)(=O)c5cccc(Cl)c5Cl)c4F)ncnc3s2)CC1` [Example 155], for which the IC50 was 1 to 10 nM in test [1], 10 to 50 nM in test [2] and < 500 nM in test [3]. Besides, the “HCT116 pERK (Ymin %)” value in test [3] was −12%.
For the compound `O=S(=O)(Nc1ccc(F)c(Nc2ncnc3sc(-n4cnc5c(N6CCNCC6)cccc54)nc23)c1F)c1cccc(Cl)c1Cl` [Example 156, 2,3-dichloro-N-[2,4-difluoro-3-[[2-(4-piperazin-1-ylbenzimidazol-1-yl)thiazolo[5,4-d]pyrimidin-7-yl]amino]phenyl]benzenesulfonamide], the IC50 in test [1] is < 1 nM; in test [2], < 10 nM; in test [3] (Homo sapiens, HCT-116), < 500 nM.
